Data taken from US8815883B2, “Compounds and methods for inhibiting serotonin synthesis” (The Trustees of Columbia Unviersity in the City of New York, priority 2009, dated 2014).
“Also recorded” adds a separate entry of the source. Where a name gives a salt, the structure may show the parent alone.

Key:
CREB = assay: Western blot analysis of CREB phosphorylation in primary osteoblasts treated with serotonin; format: cell-based, mouse; settings: serotonin 50 to 100 μM
Experimental: (§1) Decreased expression of Cyclin D1 is a major feature of both Lrp5 deficiency and serotonin treatment of osteoblasts (FIGS. 1 and 8). One transcription factor that is known to modulate the expression of cyclin genes and is expressed in osteoblasts is CREB (Fu et al., 2005, Cell 122:803-815). Therefore, whether serotonin could decrease CREB activity in these cells was tested. […] Furthermore, a CREB binding site in the Cyclin D1 mouse promoter was identified and it was shown using ChIP assays that serotonin decreased binding of CREB to this promoter (FIG. 9B). These two observations raise the hypothesis that CREB could be mediating serotonin action on osteoblasts.
Osteoblasts were treated in serum-free medium with vehicle or Serotonin (50 to 100 μM, Sigma) for 24 hr. Lysates from primary osteoblasts or crushed frozen bones were prepared in RIPA buffer in the presence of protease and phosphatase inhibitors. Twenty to 60 μg of proteins were separated by SDS-PAGE in reducing conditions and transferred on nitrocellulose membrane using standard protocols. Membranes were incubated with primary antibodies including total or anti-Phospho CREB (Cell Signaling Technology).

Cyclin D1 mouse promoter = assay: ChIP analysis of CREB binding to the Cyclin D1 promoter in primary osteoblasts treated with serotonin; format: cell-based
Experimental: as §1
(§2) Osteoblasts were treated in serum-free medium with vehicle or Serotonin (50 to 100 μM, Sigma) for 24 hr. Total RNA were extracted with Trizol (Invitrogen). cDNA were generated using the ABI Reverse transcriptase system and random hexanucleotide primers. Real-time PCR was performed using superarray primers on a Stratagene real time PCR cycler and Actin expression was used as endogenous control. Chromatin immunoprecipitation assays (ChIP) were performed by standard procedures using primary osteoblasts. Microarray analysis was performed as described previously (Glass et al., 2005, Dev. Cell 8:751-764).

primary osteoblasts = assay: Real-time PCR analysis of cyclin and osteoblast-specific gene expression in primary osteoblasts treated with serotonin; format: cell-based, mouse; settings: serotonin 50 to 100 μM, 24 hr, vs vehicle
Experimental: To test whether serotonin regulates the expression of cyclins in osteoblasts, a real-time PCR analysis of cyclin expression in primary osteoblasts treated with serotonin or vehicle was performed. […] In contrast, expression of Runx2, Osteocalcin and Type I collagen was not modified (FIG. 8B).
Calvaria osteoblasts were extracted by triple collagenase/trypsine digestion from 4 day-old CD1 pups and differentiated with ascorbic acid as previously described (Ducy et al., 2000, Cell 100:197-207).
as §2

Lrp5−/− mice = assay: pCPA treatment of WT and Lrp5−/− mice: bone histomorphometry, serum serotonin, gut TPH1 and brain TPH2 expression; format: in vivo; settings: 300 mg/kg pCPA intraperitoneally three times per week, from 3 weeks to 12 weeks of age
Experimental: Consistent with the conclusion that the increase in serum serotonin level is responsible fully or partly for the bone phenotype of the Lrp5−/− mice is the discovery that pCPA, a serotonin synthesis inhibitor (Eldridge et al., 1981, Ann. Rev. Physiol. 43:121-135), prevented the appearance of the Lrp5−/− bone phenotype by decreasing serotonin production. WT and Lrp5−/− mice were treated with 300 mg/kg pCPA intraperitoneally three times per week, from 3 weeks to 12 weeks of age (FIG. 7A) and the changes in serum serotonin levels, TPH1 expression in gut and TPH2 expression in brain stem were analyzed. Bone histomorphometry was also performed. […] This rescue of the Lrp5 −/− phenotype was achieved by normalization of the gut TPH1 mRNA and of serum serotonin levels (FIGS. 7C and 7D).
Generation of Lrp5−/− (Kato et al., 2002, J. Cell Biol. 157:303-314) β-cateninfloxed/floxed (Glass et al., 2005, Dev. Cell 8:751-764), α1(I)collagen-cre transgenic (Dacquin et al., 2002, Dev. Dyn. 224:245-251) and Htt−/− (Ansorge et al., 2008, J. Neurosci. 28:199-207) mice were as described previously. Lrp5+/−;Htt+/− double heterozygous mice were generated by crossing Lrp5+/− and Htt+/− mice. Three week-old Wt or Lrp5−/− mice were administered pCPA on alternate days for 9 weeks by i.p. All animal protocols were approved by the Animal Care Committees of Columbia University.
Static histomorphometry measurements were performed as previously described in accordance with standard nomenclature, using the Osteomeasure Analysis System (Osteometrics, Inc) (Ducy et al., 2000, Cell 100:197-207). Four to 9 animals were assigned per group.
Serotonin serum levels were quantified using immunoassay kits from Fitzgerald (Serotonin) and serotonin levels in the different regions of the brain were quantified by HPLC method as described previously (Mann et al., 1992, Arch. Gen. Psychiatry 49:442-446).

5-HT1B receptor = 5-HT1B receptor (Homo sapiens, UniProt P28222); settings: selective 5-HT1B receptor antagonist; British Journal of Pharmacology (2003) 138, 71-80; cited from earlier work
Chain of 5-HT1B receptor (P28222 whole entry): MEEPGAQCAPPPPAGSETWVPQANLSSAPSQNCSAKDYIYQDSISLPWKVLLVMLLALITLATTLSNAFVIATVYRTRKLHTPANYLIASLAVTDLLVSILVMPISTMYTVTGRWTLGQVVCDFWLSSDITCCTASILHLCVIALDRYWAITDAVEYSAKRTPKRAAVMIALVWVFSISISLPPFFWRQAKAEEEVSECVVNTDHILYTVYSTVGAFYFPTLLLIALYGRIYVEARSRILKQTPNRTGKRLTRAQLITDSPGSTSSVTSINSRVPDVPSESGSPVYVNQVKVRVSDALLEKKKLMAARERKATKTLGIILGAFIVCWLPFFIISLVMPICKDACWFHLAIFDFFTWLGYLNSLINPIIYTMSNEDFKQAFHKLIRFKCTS

rb 5-HT1B receptors = rb 5-HT1B receptors (Oryctolagus cuniculus, UniProt P49144); settings: British Journal of Pharmacology (1997) 120, 153; cited from earlier work
Chain of rb 5-HT1B receptors (P49144 whole entry): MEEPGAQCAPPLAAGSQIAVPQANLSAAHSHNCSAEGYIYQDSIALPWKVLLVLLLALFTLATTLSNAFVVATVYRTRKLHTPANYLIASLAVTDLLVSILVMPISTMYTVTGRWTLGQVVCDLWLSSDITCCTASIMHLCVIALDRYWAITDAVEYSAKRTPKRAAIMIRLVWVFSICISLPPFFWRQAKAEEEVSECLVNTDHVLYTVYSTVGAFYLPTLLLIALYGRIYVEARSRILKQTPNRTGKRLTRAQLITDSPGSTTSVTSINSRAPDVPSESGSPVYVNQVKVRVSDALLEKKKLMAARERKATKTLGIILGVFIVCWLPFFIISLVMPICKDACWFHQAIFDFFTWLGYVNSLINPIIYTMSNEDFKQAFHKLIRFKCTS

For NCCc1c[nH]c2ccc(O)cc12 [serotonin, 5-hydroxytryptamine], the CREB phosphorylation (CREB) was “significantly decreased”, the “binding of CREB to the Cyclin D1 promoter (ChIP)” value (Cyclin D1 mouse promoter) was “decreased” and the “expression of Cyclin D1” value (primary osteoblasts) was “decreased”. The “expression of Cyclin D2” value (primary osteoblasts) was “decreased”, the “expression of Osteocalcin” value (primary osteoblasts) was “not modified” and the “expression of Runx2” value (primary osteoblasts) was “not modified”. The “expression of Type I collagen” value (primary osteoblasts) was “not modified”.

With NC(Cc1ccc(Cl)cc1)C(=O)O (stereo not drawn) [pCPA, para-chlorophenylalanine] the “gut TPH1 mRNA” value (Lrp5−/− mice; Lrp5−/− mice) was “normalization”, the “bone abnormalities (bone histomorphometry)” value (Lrp5−/− mice; Lrp5−/− mice, 300 mg/kg) was “corrects bone abnormalities; also recorded: corrects their low bone phenotype; also recorded: corrected the bone abnormalities” and the serum serotonin levels (Lrp5−/− mice; Lrp5−/− mice, 300 mg/kg) was “normalizes; also recorded: normalization”. For the same compound, the bone mass (Lrp5−/− mice; WT mice) was “without overtly affecting bone mass” and the “Brain TPH2 mRNA levels” value (Lrp5−/− mice; treated mice) was “not affected”.

In the case of CN(C)CCCc1cc(C(=O)Nc2ccc(-c3ccncc3)cc2)ccc1O [GR 55562, 3-[3-(dimethylamino)propyl]-4-hydroxy-N-[4-(4-pyridinyl)phenyl]benzamide dihydrochloride], the Kb (5-HT1B receptor) is given as ~100 nM.

In the case of O=C(c1ccc(F)cc1)C1CCN(CCn2c(=O)[nH]c3ccccc3c2=O)CC1 [ketanserin], the “mode of antagonism at rb 5-HT1B receptors” value (rb 5-HT1B receptors) is listed as “silent, competitive antagonists”.

In the case of CSc1ccc2c(c1)C(N1CCN(C)CC1)Cc1ccccc1S2 (stereo not drawn) [methiothepin], the “mode of antagonism at rb 5-HT1B receptors” value (rb 5-HT1B receptors) is given as “silent, competitive antagonists”.
